{"source": "patent US20030035827A1", "about": "“Pharmaceutical compositions containing substrates of enabling enzymes to preferentially deliver drugs away from PBVC or GIC systems” (priority 2001, published 2003)", "origin": "cited, not measured here", "target": "pseudocholinesterase, plasma cholinesterase or butyrocholinesterase (PCE) (Homo sapiens, UniProt P06276)", "sequence (P06276 29-602)": "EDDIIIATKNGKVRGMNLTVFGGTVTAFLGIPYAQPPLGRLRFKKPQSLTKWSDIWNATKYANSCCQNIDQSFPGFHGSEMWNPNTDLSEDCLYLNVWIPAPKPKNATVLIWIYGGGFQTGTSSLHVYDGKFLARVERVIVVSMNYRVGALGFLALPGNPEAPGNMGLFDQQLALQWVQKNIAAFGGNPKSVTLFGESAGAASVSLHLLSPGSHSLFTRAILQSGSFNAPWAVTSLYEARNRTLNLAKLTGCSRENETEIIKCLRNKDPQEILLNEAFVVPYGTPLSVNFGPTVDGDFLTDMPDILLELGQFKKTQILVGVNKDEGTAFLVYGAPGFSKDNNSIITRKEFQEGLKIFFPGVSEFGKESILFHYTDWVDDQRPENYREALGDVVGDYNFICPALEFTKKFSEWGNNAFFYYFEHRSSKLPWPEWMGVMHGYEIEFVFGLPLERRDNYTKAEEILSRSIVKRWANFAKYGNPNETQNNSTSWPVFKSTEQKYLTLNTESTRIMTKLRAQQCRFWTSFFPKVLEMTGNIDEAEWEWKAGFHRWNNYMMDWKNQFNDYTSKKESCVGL", "key": {"[1]": {"conditions": "substrate of PCE, previous experiments"}, "[2]": {"conditions": "substrate of PCE, previous experiments, read-out: Km"}}, "note": "Read-outs that look alike come from different tables or passages of the source.", "data": [{"compound": "CC(=O)Oc1ccccc1C(=O)O", "note": "[Aspirin]", "values": [{"measurement": "Kcat", "setting": "[1]", "value": "7,200/min."}, {"measurement": "Km", "setting": "[1]", "value": "1,600 uM"}]}, {"compound": "CCCC(=O)Oc1ccccc1[N+](=O)[O-]", "note": "[O-Nitrophenylbutyrate]", "values": [{"measurement": "Kcat", "value": "48,000/min."}, {"measurement": "Km", "setting": "read-out: Km", "value": 0.4, "unit": "mM"}]}, {"compound": "CCC(=O)OCC[N+](C)(C)C", "note": "[Propionylcholine]", "values": [{"measurement": "Kcat", "setting": "[1]", "value": "55,000/min."}, {"measurement": "Km", "setting": "[2]", "value": 3.1, "unit": "mM"}]}, {"compound": "CC(=O)OCC[N+](C)(C)C", "note": "[Acetylcholine]", "values": [{"measurement": "Km", "setting": "[1]", "value": "9,000 uM"}]}, {"compound": "CCCC(=O)SCC[N+](C)(C)C", "note": "[Butyrylthiocholine]", "values": [{"measurement": "Kcat", "setting": "[1]", "value": "30,000/min."}]}, {"compound": "CC(=O)Oc1ccc2c3c1O[C@H]1[C@@H](OC(C)=O)C=C[C@H]4[C@@H](C2)N(C)CC[C@@]341", "note": "[Heroin]", "values": [{"measurement": "Km", "value": 0.45, "unit": "mM"}, {"measurement": "Kcat", "setting": "[1]", "value": 500, "unit": "min⁻¹"}]}, {"compound": "CCN(CC)CCOC(=O)c1ccc(N)cc1", "note": "[Procaine]", "values": [{"measurement": "Km", "value": 0.1, "unit": "mM"}, {"measurement": "Kcat", "setting": "[1]", "value": 255, "unit": "min⁻¹"}]}, {"compound": "CCCCNc1ccc(C(=O)OCCN(C)C)cc1", "note": "[Tetracaine]", "values": [{"measurement": "Kcat", "setting": "[1]", "value": 74, "unit": "min⁻¹"}, {"measurement": "Km", "setting": "[1]", "value": 0.008, "unit": "mM"}]}, {"compound": "CCCCCCC(=O)OCC[N+](C)(C)C", "note": "[Hepanoylcholine]", "values": [{"measurement": "Kcat", "value": "35,000/min."}, {"measurement": "Km", "setting": "read-out: Km", "value": 1.11, "unit": "mM"}]}, {"compound": "C[N+](C)(C)CCOC(=O)c1ccccc1", "note": "[Benzoylcholine]", "values": [{"measurement": "Kcat", "setting": "[1]", "value": "15,000/min."}, {"measurement": "Km", "setting": "[2]", "value": 0.022, "unit": "mM"}]}, {"compound": "CCCCC(=O)OCC[N+](C)(C)C", "note": "[Pentanoylcholine]", "values": [{"measurement": "Km", "setting": "read-out: Km", "value": 1.5, "unit": "mM"}, {"measurement": "Kcat", "setting": "[1]", "value": "63,000/min."}]}, {"compound": "Succinyldithiocholine", "values": [{"measurement": "Kcat", "setting": "[1]", "value": 600, "unit": "min⁻¹"}, {"measurement": "Km", "setting": "[2]", "value": 1.08, "unit": "mM"}]}, {"compound": "CCCCCC(=O)OCC[N+](C)(C)C", "note": "[Hexanoylcholine]", "values": [{"measurement": "Km", "setting": "read-out: Km", "value": 0.82, "unit": "mM"}, {"measurement": "Kcat", "setting": "[1]", "value": "36,000/min."}]}, {"compound": "CCCC(=O)OCC[N+](C)(C)C", "note": "[Butyrylcholine]", "values": [{"measurement": "Kcat", "setting": "[1]", "value": "80,000/min."}, {"measurement": "Km", "setting": "[2]", "value": 1.7, "unit": "mM"}]}]}
